Structures are written as SMILES. “And” between values parts separate entries of the source, which are not always exact repeats. Identical values can stand only once. Like-named read-outs stand apart in the source and are kept apart here.

These results are taken from US20070299092A1 (Wyeth, priority 2004, published 2007).

The subject of data set [1] is Human umbilical vein endothelial cells (HUVEC). As to the kind of experiment: HUVEC proliferation assay, VEGF-dependent growth ([3H]-thymidine incorporation). The format is cell-based. The following applies: for inhibition at 0.1 µM / inhibition at 1 µM / inhibition at 10 µM: Homo sapiens, HUVEC. Summed up:
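HUVEC seeded 4000 cells/well, attached overnight, then given compound in serum/VEGF-free EBM plus 50 ng/ml VEGF (final); parallel plates used EGM2 with 2% serum lacking VEGF. Incubation 4-5 days at 37° C. DNA synthesis measured by 5 h [3H]-thymidine (1 μCi/well) incorporation, scintillation-counted.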

The target in data set [2] is T1, KDR (Homo sapiens, UniProt P35968). The following applies: compound conc. 1000 nM.
T1 sequence (P35968 20-1356): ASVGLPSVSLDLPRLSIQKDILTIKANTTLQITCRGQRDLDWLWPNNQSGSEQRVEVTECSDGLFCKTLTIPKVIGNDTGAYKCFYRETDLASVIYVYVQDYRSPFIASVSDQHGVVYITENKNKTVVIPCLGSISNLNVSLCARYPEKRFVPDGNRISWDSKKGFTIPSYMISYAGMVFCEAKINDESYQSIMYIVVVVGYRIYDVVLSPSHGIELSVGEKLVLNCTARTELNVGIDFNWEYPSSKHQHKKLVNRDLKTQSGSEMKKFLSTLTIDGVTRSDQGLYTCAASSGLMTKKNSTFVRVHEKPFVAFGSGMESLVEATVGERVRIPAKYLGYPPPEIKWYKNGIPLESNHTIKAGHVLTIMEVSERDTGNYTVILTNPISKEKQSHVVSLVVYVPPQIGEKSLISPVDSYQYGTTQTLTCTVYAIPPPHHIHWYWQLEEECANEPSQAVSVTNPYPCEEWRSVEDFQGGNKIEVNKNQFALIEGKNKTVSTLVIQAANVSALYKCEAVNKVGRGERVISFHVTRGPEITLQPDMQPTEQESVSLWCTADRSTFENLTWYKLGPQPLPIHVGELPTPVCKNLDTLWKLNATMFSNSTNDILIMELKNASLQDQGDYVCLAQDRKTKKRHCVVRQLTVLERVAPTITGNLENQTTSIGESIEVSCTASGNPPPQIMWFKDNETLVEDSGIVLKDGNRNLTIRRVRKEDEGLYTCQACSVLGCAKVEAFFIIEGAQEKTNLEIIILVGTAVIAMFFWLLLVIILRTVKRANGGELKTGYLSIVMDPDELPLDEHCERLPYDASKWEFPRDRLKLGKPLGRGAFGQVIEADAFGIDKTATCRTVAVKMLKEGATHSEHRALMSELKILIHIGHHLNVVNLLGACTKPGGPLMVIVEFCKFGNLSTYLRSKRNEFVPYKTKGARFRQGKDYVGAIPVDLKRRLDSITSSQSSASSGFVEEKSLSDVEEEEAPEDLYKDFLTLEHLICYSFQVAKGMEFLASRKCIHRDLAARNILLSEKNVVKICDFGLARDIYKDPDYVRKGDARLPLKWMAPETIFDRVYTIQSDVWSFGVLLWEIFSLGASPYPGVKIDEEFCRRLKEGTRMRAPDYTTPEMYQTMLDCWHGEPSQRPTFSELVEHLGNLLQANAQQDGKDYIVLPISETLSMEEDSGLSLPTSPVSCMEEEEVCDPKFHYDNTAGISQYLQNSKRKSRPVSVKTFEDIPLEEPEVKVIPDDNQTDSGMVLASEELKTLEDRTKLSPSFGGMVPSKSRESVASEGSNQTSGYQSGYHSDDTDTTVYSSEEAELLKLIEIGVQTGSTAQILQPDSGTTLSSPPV
In data set [3] the target is T2, human KDR (VEGF-receptor-2) (Homo sapiens, UniProt P35968).
T2 construct: beginning at Met-806; (5′-ATG GAT CCA GAT GM CTC CCA TTG) and ending at Val-1356; made in house
T2 sequence (P35968 806-1356): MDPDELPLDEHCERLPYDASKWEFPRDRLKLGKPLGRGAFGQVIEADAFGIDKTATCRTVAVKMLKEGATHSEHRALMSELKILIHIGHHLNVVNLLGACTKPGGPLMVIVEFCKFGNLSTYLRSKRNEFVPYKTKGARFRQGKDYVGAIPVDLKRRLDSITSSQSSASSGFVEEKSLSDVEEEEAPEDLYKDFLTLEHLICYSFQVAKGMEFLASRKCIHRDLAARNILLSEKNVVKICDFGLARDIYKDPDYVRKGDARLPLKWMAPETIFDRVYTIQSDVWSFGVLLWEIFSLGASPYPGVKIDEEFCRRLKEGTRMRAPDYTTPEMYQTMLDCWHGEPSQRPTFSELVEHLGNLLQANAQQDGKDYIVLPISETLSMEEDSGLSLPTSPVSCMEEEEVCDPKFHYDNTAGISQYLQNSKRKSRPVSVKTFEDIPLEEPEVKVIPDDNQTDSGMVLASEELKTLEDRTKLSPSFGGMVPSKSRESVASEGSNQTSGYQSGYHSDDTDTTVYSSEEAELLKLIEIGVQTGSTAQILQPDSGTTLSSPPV
As to the kind of experiment: KDR kinase enzyme assay (DELFIA, KDR-IC-Flag, poly(Glu4-Tyr) peptide). The following applies: for inhibition at 0.1 µM / inhibition at 1 µM: read-out: % Inhibition. The format is biochemical.

Data set [4] has as its target T2, human KDR (VEGF-receptor-2). As to the kind of experiment: KDR kinase enzyme assay wash-out experiments (irreversible inhibition). The format is biochemical. How it is done:
To determine if compounds bound irreversibly to enzyme, plates were washed after the enzyme plus compound pre-incubation step and prior to the addition of ATP. Parallel plates were tested wherein one plate was processed exactly as above while a second plate was washed three times in 100 μl of 4 mM HEPES, pH 7.4, to remove unbound compound. 1× Kinase buffer (30 μl of 1 mM MnCl2, 4 mM HEPES, pH 7.4, 20 μM Na3VO4) and 20 μl of ATP/MgCl2 were added to the wash-out plate. Detection of phosphotyrosinylated peptide for both plates was performed as described above.
For each inhibitor shown in Table 2, two IC50 determinations are shown, one under normal conditions and the other where an intermediate wash-out step is carried out. […] If there was a large increase in the IC50 value in the wash-out experiment compared to the experiment where there was no wash-out, then it was determined that the compound was behaving as a conventional reversible binding inhibitor.

For data set [5], the target named is T1, KDR. As to the kind of experiment: cell-based. The following applies: for inhibition at 1 µM: read-out: % Inhibition of KDR kinase autophosphorylation in KDR15 cells, compound conc. 1000 nM; for IC50: IC50 (nM), inhibition of KDR kinase autophosphorylation in KDR15 cells, KDR15 cells, VEGF 50 ng/ml, phospho-KDR-Y996 immunoblot.
The mark [6] stands for this setting: Concentration 100 nM, ATP conc. 10 μM.
Setting [7] is: Concentration 1000 nM, ATP conc. 10 μM.
[8] abbreviates: Concentration 1000 nM, ATP conc. 1000 μM.

Take `COCCOc1cc2ncnc(NC3=CC(=O)C(N(C)c4ccc(N(C)C)cc4)=CC3=O)c2cc1OC` [Example 75, 2-[[4-(dimethylamino)phenyl](methyl)amino]-5-{[6-methoxy-7-(2-methoxyethoxy)quinazolin-4-yl]amino}benzo-1,4-quinone]: the inhibition at 0.1 µM is -22% in data set [1] (conc. 100 nM) and 47% in data set [3] (setting [6]). Also, the inhibition at 1 µM in data set [1] (conc. 1000 nM) is 41%; in data set [3] (setting [7]) it was 92%; in data set [3] (setting [8]), 93%; in data set [5] it was 45%. For the same compound, the inhibition at 10 µM in data set [1] (conc. 10000 nM) amounted to 91%. The “% Inhibition of KDR kinase autophosphorylation in KDR15 cells” value (from here on “% Inhibition … in KDR15 cells”) in data set [2] is given as 61%. The 50% inhibitory concentration (IC50) in data set [3] (ATP conc. 10 μM) was found to be 93 nM; in data set [4] (no wash), 93 nM; in data set [4] (wash out) it was 161 nM.

For `COc1cc2ncnc(NC3=CC(=O)C(Oc4ccc(Cl)cc4)=CC3=O)c2cc1OC` [Example 94, 2-(4-chlorophenoxy)-5-[(6,7-dimethoxyquinazolin-4-yl)amino]benzo-1,4-quinone], the inhibition at 0.1 µM in data set [1] (conc. 100 nM) amounted to 28%; in data set [3] (setting [6]), 93%. Besides, the inhibition at 1 µM in data set [1] (conc. 1000 nM) was 60%; in data set [3] (setting [7]), 94%; in data set [3] (setting [8]) it was 96%. For the same compound, the inhibition at 10 µM in data set [1] (conc. 10000 nM) turned out to be 94%. The “% Inhibition of VEGF-dependent growth of HUVEC” value in data set [1] (conc. 100 nM) is 20%; in data set [1] (conc. 1000 nM), 52%; in data set [1] (conc. 10000 nM) it was 78%. The “% Inhibition … in KDR15 cells” value in data set [2] is 40% and 54% and 64%. Moreover, the IC50 in data set [3] (ATP conc. 10 μM) was found to be 4 nM; in data set [5], 386 nM.

In the case of `COc1cc2ncnc(NC3=CC(=O)C(C(C)C)=CC3=O)c2cc1OC` [Example 9, 2-[(6,7-dimethoxy-4-quinazolinyl)amino]-5-isopropylbenzo-1,4-quinone], in data set [2], the “% Inhibition … in KDR15 cells” value was 55% and 94%. Further, the inhibition at 0.1 µM in data set [3] (setting [6]) came to 24%. Further, the figures for the inhibition at 1 µM in data set [3] (setting [7]) and in data set [3] (setting [8]) were 58% and 33%, respectively.

In turn, `COCCOc1cc2ncnc(NC3=CC(=O)C4(Cc5ccccc5)OC4C3=O)c2cc1OC` (stereo not drawn) [Example 108, 1-benzyl-4-{[6-methoxy-7-(2-methoxyethoxy)quinazolin-4-yl]amino}-7-oxabicyclo[4.1.0]hept-3-ene-2,5-dione] gave a melting point of 104 to 108 °C. Also, in data set [4] (no wash), the concentration for half-maximal inhibition (IC50) stood at 59.8 nM. The 50% inhibitory concentration (IC50) in data set [4] (wash out) is 82.6 nM. In addition, in data set [5], the inhibition at 1 µM was 68%.

For `COCCOc1cc2ncnc(NC3=CC(=O)C(Oc4ccccc4C)=CC3=O)c2cc1OC` [Example 90, 2-{[6-methoxy-7-(2-methoxyethoxy)quinazolin-4-yl]amino}-5-(2-methylphenoxy)benzo-1,4-quinone], the melting point lay in the range of 134 to 137 °C. The inhibition at 0.1 µM in data set [1] (conc. 100 nM) was 22%. Moreover, the inhibition at 1 µM in data set [1] (conc. 1000 nM) worked out at 15%. The inhibition at 10 µM in data set [1] (conc. 10000 nM) is 95%. Moreover, the IC50 in data set [3] (ATP conc. 10 μM) is 30 nM and 7.5 nM and 8.8 nM. Also, the inhibition at 1 µM in data set [3] (setting [7]) was 94%. Also, in data set [3] (setting [8]), the “% Inhibition” value was 97% and the inhibition at 1 µM turned out to be 96%. Moreover, the IC50 in data set [4] (no wash) worked out at 8.8 nM. The IC50 in data set [4] (wash out) was 18.5 nM. The IC50 in data set [5] was 236 nM and 147 nM. Besides, the inhibition at 0.2 µM in data set [5] (read-out: % Inhibition of KDR kinase autophosphorylation in KDR15 cells, compound conc. 200 nM) stood at 29%.

As for `COCCOc1cc2ncnc(NC3=CC(=O)C4(C)OC4C3=O)c2cc1OC` (stereo not drawn) [Example 106, 4-{[6-methoxy-7-(2-methoxyethoxy)-4-quinazolinyl]amino}-1-methyl-7-oxabicyclo[4.1.0]hept-3-ene-2,5-dione], in data set [2], the “% Inhibition … in KDR15 cells” value was 78% and 100% and 59%. Further, half-maximal inhibition in data set [3] (ATP conc. 10 μM) (IC50) was put at 339 nM. Besides, the inhibition at 1 µM in data set [3] (setting [7]) is 69%; in data set [3] (setting [8]), 70%.

As to `COCCOc1cc2ncnc(NC3=CC(=O)C(Oc4cccnc4)=CC3=O)c2cc1OC` [Example 91, 2-{[6-methoxy-7-(2-methoxyethoxy)quinazolin-4-yl]amino}-5-(pyridin-3-yloxy)benzo-1,4-quinone], the melting point was 189 to 190 °C. Moreover, in data set [1] (conc. 100 nM), the inhibition at 0.1 µM was 0%. Moreover, in data set [1] (conc. 1000 nM), the inhibition at 1 µM was determined as 15%. For the same compound, the inhibition at 10 µM in data set [1] (conc. 10000 nM) amounted to 93%. Besides, the IC50 in data set [3] (ATP conc. 10 μM) is 18.9 nM. Moreover, in data set [3] (setting [6]), the inhibition at 0.1 µM amounted to 76%. In addition, in data set [3] (setting [7]), the inhibition at 1 µM was determined as 96%. Besides, the inhibition at 1 µM in data set [3] (setting [8]) came out at 97%. In data set [4] (no wash), this compound came in with an IC50 of 18.9 nM. In data set [4] (wash out), the IC50 was determined as 18.9 nM. Also, the inhibition at 1 µM in data set [5] was determined as 55%.

`COCCOc1cc2ncnc(NC3=CC(=O)C(Oc4ccc(S(N)(=O)=O)cc4)=CC3=O)c2cc1OC` [Example 38, 4-[(4-{[6-methoxy-7-(2-methoxyethoxy)quinazolin-4-yl]amino}-3,6-dioxocyclohexa-1,4-dien-1-yl)oxy] benzenesulfonamide]: the “% Inhibition … in KDR15 cells” value in data set [2] is 97%. The figures for the “% Inhibition” value in data set [3] (setting [6]) and in data set [3] (setting [7]) were 93% and 95%, respectively.

As to `COCCOc1cc2ncnc(NC3=CC(=O)C(N(C)c4ccc(OC)c(OC)c4)=CC3=O)c2cc1OC` [Example 73, 2-[(3,4-dimethoxyphenyl)(methyl)amino]-5-{[6-methoxy-7-(2-methoxyethoxy)quinazolin-4-yl]amino}benzo-1,4-quinone], in data set [2], the “% Inhibition … in KDR15 cells” value is 90% and 143% and 113%. Besides, the IC50 is 1840 nM and > 1000 nM in data set [3] (ATP conc. 10 μM); below 15.6 nM in data set [5]. Further, the inhibition at 1 µM in data set [3] (setting [7]) is 30%; in data set [3] (setting [8]), -2%. Moreover, the inhibition at 10 µM in data set [3] (Concentration not given, ATP conc. 10 μM) was 13%.

In the case of `COc1cc2ncnc(NC3=CC(=O)C(C)=CC3=O)c2cc1OC` [Example 4, 2-[(6,7-dimethoxy-4-quinazolinyl)amino]-5-methylbenzo-1,4-quinone], in data set [2], the “% Inhibition … in KDR15 cells” value was determined as 106%. The IC50 was 80.5 nM and 285 nM and 707 nM in data set [3] (ATP conc. 10 μM); 285 nM in data set [4] (no wash); above 1000 nM in data set [4] (wash out); below 15.6 nM in data set [5]. Besides, the values for the inhibition at 1 µM in data set [3] (setting [7]), in data set [3] (setting [8]) and in data set [5] were 15%, 12% and 100%, respectively. Moreover, the “Behaviour as reversible or irreversible binding inhibitor” value in data set [4] (IC50 with wash-out step compared to no wash-out step) is “appear to act like reversible binding inhibitors”.

Take `COc1cc2ncnc(NC3=CC(=O)C(Nc4ccccc4)=CC3=O)c2cc1OC` [Example 86, 2-anilino-5-[(6,7-dimethoxyquinazolin-4-yl)amino]benzo-1,4-quinone]: the melting point lay in the range of 258 to 261 °C. Half-maximal inhibition in data set [3] (ATP conc. 10 μM) (IC50) was put at 40.7 nM. The inhibition at 0.1 µM in data set [3] (setting [6]) is 58%. For the same compound, in data set [3] (setting [7]), the inhibition at 1 µM is 93%. Also, the inhibition at 1 µM in data set [3] (setting [8]) amounted to 96%. The compound further yielded an IC50 in data set [4] (no wash) of 40.7 nM. Besides, in data set [4] (wash out), 57.1 nM corresponded to half-maximal inhibition (IC50).

The compound `COc1cc2ncnc(NC3=CC(=O)C(Oc4ccccc4)=CC3=O)c2cc1OC` [Example 95, 2-[(6,7-dimethoxyquinazolin-4-yl)amino]-5-phenoxybenzo-1,4-quinone] registered a melting point of 228 to 234 °C. Besides, the IC50 in data set [3] (ATP conc. 10 μM) amounted to 3.7 nM. Besides, in data set [3] (setting [6]), the inhibition at 0.1 µM came out at 85%. The inhibition at 1 µM in data set [3] (setting [7]) is 96%. Moreover, the inhibition at 1 µM in data set [3] (setting [8]) is 98%. In data set [4] (no wash), half-maximal inhibition (IC50) was put at 4.2 nM. In addition, in data set [4] (wash out), it took 6.5 nM to reach half-maximal inhibition (IC50).

Take `COc1cc2ncnc(NC3=CC(=O)C(Cl)=CC3=O)c2cc1OC` [Example 2, 2-chloro-5-[(6,7-dimethoxy-4-quinazolinyl)amino]benzo-1,4-quinone]: the “% Inhibition … in KDR15 cells” value in data set [2] is recorded as 12%. The IC50 in data set [3] (ATP conc. 10 μM) stood at 5.1 nM. For the same compound, the inhibition at 0.1 µM in data set [3] (setting [6]) worked out at 83%. The figures for the inhibition at 1 µM in data set [3] (setting [7]), in data set [3] (setting [8]) and in data set [5] were 96%, 98% and 18%, respectively.
